Residues, ends and D or L forms follow the SMILES beside them.
Assays:
[1] = Solubility of H1299.3 15-mer; format: physicochemical; details: effect of acetylation
NSCLC tumor = test: H1299.3 15-mer in vivo tumor targeting
Experimental: (§1) A modified MGS peptide (SEQ ID NO: 31) that fuses amino acids 1-5 and 11-20 of the original MGS peptide: LQWRRNFGVWARYRL (SEQ ID NO: 31) was assessed.

[2] = test system: NSCLC and other tumor cells; test: Peptide binding/internalization in tumor cell lines; format: cell-based, human
Experimental: (§2) Flow Cytometry. Biotinylated peptide was conjugated to streptavidin-R-phycoerythrin (1:1) for 30 min at RT. The remaining binding sites on streptavidin were quenched with RPMI 1640 and solution diluted to 25 nM. Tumor cells were grown to 90% confluency in a 12 well plate, then incubated with 500 μl peptide-dye conjugate for 1 hour at 37 C. After 1 hour, peptide was removed and the cells were washed 3× with PBS for 5 min, 2× with acid rinse, and 1×PBS rinse. Added 300 μl trypsin until cells lifted then added 700 μl RPMI+5% FBS to inactivate the trypsin. Cells were transferred to a flow tube, and put on ice in the dark. Flow cytometry was run on BD FACSCelesta and data were analyzed on Flowing software. A region containing <5% of the cells in the negative control is established and the McGuire score is calculated for each sample by multiplying the % of positive cells by the fluorescence intensity.
(§3) For the flow cytometry experiments, cells are treated with a peptide (e.g., a MGS peptide) that has a dye on it for one hour. If the peptide enters the cell(s), the dye will also enter the cell(s) (see, FIG. 11). Next, the cells are washed and placed in a tube to run flow cytometry. The flow cytometer can measure the brightness of 10,000 or more individual cells.
Phage blocking was used as a control. HCC15.2 was internalized by a specific panel of cell lines and not others.

LC line H1299 = test: Flow cytometry binding of peptide-dye conjugate, H1299; format: cell-based, human
Experimental: as §2, §3

normal HBEC's = test: Flow cytometry binding of peptide-dye conjugate, normal HBEC; format: cell-based
Experimental: as §2, §3

H1299 cells = test: Confocal microscopy, organelle co-localization; format: cell-based, human; details: over time
Experimental: Confocal Microscopy. Plasmids with organelle specific markers labeled with GFP were purchased from Addgene and electroporated into H1299 cells. After G418 selection, GFP-labeled tumor cells were plated on 8 well chamber slides on the day previous to the study. Biotinylated peptide was conjugated to streptavidin-AlexaFluor 555 (1:1) for 30 min at RT and quenched with RPMI, then added to the wells at 50 nM. After 1 hour incubation cells were washed for 5 min 3× with PBS, 2× acid rinses, and 1×PBS rinse. Cells were fixed in 2% formaldehyde for 10 min, washed with PBS, stained with DAPI in mounting media and coverslip was added. Microscopy was acquired on a Zeiss LSM 700 with a Pln Apo 63×/1.4 oil DIC III objective. Compressed images were obtained using ImageJ software maximal intensity projections.
For the microscopy experiments, cells are treated with a peptide (e.g., a MGS peptide) that has a dye on it for one hour. If the peptide enters the cell(s), the dye will also enter the cell(s) (see, FIG. 1). Next, the cells are washed and fixed to glass plate. Other parts of the cell (e.g., cell membrane, organelles or nucleus) are stained. Fluorescent microscopy is performed to assess the dyes in the cells. Confocal microscopy is used to take a series of sliced images that can be used to build a 3D picture (like an MRI).

cancer cells [3] = test: H1299.3 15-mer cell binding and autophagosome co-localization; format: cell-based
Experimental: as §1

cancer cells [4] = test: Cancer cell killing assay; format: cell-based; details: unconjugated
Experimental: A cancer cell killing assay was performed (see, FIG. 22). Cancer cells were put into a dish. After 24 hours, cells were given different doses of peptide-saporin for 1 hour. Peptide-saporin was washed off and cells were left for 72 more hours. Assay to measure live cells performed.

With `CC(=O)N[C@@H](CC(C)C)C(=O)N[C@@H](CCC(N)=O)C(=O)N[C@@H](Cc1c[nH]c2ccccc12)C(=O)N[C@@H](CCCNC(=N)N)C(=O)N[C@@H](CCCNC(=N)N)C(=O)N[C@@H](CC(N)=O)C(=O)N[C@@H](Cc1ccccc1)C(=O)NCC(=O)N[C@H](C(=O)N[C@@H](Cc1c[nH]c2ccccc12)C(=O)N[C@@H](C)C(=O)N[C@@H](CCCNC(=N)N)C(=O)N[C@@H](Cc1ccc(O)cc1)C(=O)N[C@@H](CCCNC(=N)N)C(=O)N[C@@H](CC(C)C)C(=O)O)C(C)C` [1299.3 Ac-15mer] (Ac-LQWRRNFGVWARYRL-OH; N-terminus and C-terminus assumed) the solubility [1] was “improves solubility” and the degradation in vivo (NSCLC tumor; effect of acetylation) was “protects degradation in vivo”.

For FHAVPQSFYT [SEQ ID NO: 3], the “effect of acetylation on binding of the truncated peptide” value ([2]; N-terminal acetylation) was “improves binding”.

For FHAVPQSFYTAP [HCC15.2], the “binding by flow cytometry” value (LC line H1299) was “binds”, the “binding by flow cytometry” value (normal HBEC's) was “does not bind” and the “binding to cell line panel” value [2] was “binds to a specific subset of NSCLC and other tumor cells”. The internalization ([2]; at 4° C.) was “does not internalize”, the “effect of tetramerization on receptor mediated internalization” value ([2]; tetramer compared to monomer) was “does not significantly improve” and the internalization ([2]; treating with trypsin 2 min before adding peptide) was “no internalization”. The lysosome localization (H1299 cells) was “accumulates in the lysosome over time”.

With LQWRRNFGVWARYRL [SEQ ID NO: 31] the “tumor targeting in vivo” value (NSCLC tumor; NSCLC tumor in an animal) was “hones to a NSCLC tumor”, the “reduction in heart, lung and kidney tumors” value (NSCLC tumor; in vivo) was over 2 fold and the cancer specificity (cancer cells [3]; cancer versus normal cell binding) was “maintains its cancer specificity”. The “trafficking to the autophagosome” value (cancer cells [3]; versus original peptide) was “increases its ability to traffic to the autophagosome”.

In the case of “saporin: ribosome inactivating protein (RIP, 34 KD) with no cell entry domain; plant toxin”, the cell entry (cancer cells [4]) is reported as “did not enter the cell by itself”.

From patent publication US12576157B2, “Peptide saporin conjugate for the treatment of cancer” (SRI International, priority 2017, dated 2026)
